Laboratory results: patent EP1940519B1, “Pharmaceutical composition comprising artesunate, sulfamethoxypyrazine and pyrimethamine for use in the treatment of malaria within one day” (Dafra Pharma N.V., priority 2005, dated 2007)

Tests used:
[1] = system: uncomplicated falciparum malaria; conditions: area of multi-drug resistance, Thai-Burmese border; cited from earlier work
[2] = fatty meal (approximately 30 g of fat) versus low-fat meal; with artesunate 8 mg/kg and mefloquine 15 mg/kg over 12h; cited from earlier work
[3] = system: Plasmodium falciparum malaria; conditions: India; number among the 89 subjects who completed the study; cited from earlier work
[4] = in vivo
Experimental: Treatment safety was assessed clinically as well as by measuring hematological indices and serum creatinine and hepatic transaminase concentrations. The sample size was computed assuming equal efficacy of the two treatments, and 606 patients (303 in each treatment arm) were enrolled over two consecutive malaria transmission seasons.

OC(c1cc(C(F)(F)F)nc2c(C(F)(F)F)cccc12)C1CCCCN1 (stereo not shown) [MQ, mefloquine]
Overall failure rates by day 28 [1]: 24% | bioavailability of mefloquine [2]: does not appear to increase the bioavailability

CCN(CC)CCCC(C)Nc1ccnc2cc(Cl)ccc12 (stereo not shown) [chloroquine]
treatment failures [3]: 46

artemether-lumefantrine
mild and transient elevation of transaminases [4]: 0/72
